Consider 8 compounds from patent US8173674B2, “Sulfonyl-phenyl-2H-[1,2,4]oxadiazol-5-one derivatives, processes for their preparation and their use as pharmaceuticals” (Sanofi-Aventis, priority 2006, dated 2012).

One test concerns the target T1, human PPARalpha (Homo sapiens, UniProt Q07869).
T1 construct: amino acids S167-Y468; expressed in transfected cells
T1 sequence (Q07869 167-468): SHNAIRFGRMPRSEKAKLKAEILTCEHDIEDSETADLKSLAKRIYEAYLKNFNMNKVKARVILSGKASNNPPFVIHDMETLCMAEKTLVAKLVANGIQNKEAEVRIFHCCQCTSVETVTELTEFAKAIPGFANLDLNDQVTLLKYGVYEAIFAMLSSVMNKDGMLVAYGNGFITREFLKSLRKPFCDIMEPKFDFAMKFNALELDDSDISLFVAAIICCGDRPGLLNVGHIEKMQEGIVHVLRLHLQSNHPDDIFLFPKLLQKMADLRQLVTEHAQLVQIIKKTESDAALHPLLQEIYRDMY
Description: cellular PPARalpha assay (luciferase reporter, stably transfected HEK cell line). In kind it is cell-based. On the procedure:
(§1) The potency of substances which bind to human PPARalpha and activate it in an agonistic manner is analyzed using a stably transfected HEK cell line (HEK=human embryo kidney) which is referred to here as PPARalpha reporter cell line. It contains two genetic elements, a luciferase reporter element (pdeltaM-GAL4-Luc-Zeo) and a PPARalpha fusion protein (GR-GAL4-humanPPARalpha-LBD) which mediates expression of the luciferase reporter element depending on a PPARalpha ligand. The stably and constitutively expressed fusion protein GR-GAL4-humanPPARalpha-LBD binds in the cell nucleus of the PPARalpha reporter cell line via the GAL4 protein portion to the GAL4 DNA binding motifs 5′-upstream of the luciferase reporter element which is stably integrated in the genome of the cell line. There is only weak expression of the luciferase reporter gene in the absence of a PPARalpha ligand if fatty acid-depleted fetal calf serum (cs-FCS) is used in the assay. PPARalpha ligands bind and activate the PPARalpha fusion protein and thereby stimulate the expression of the luciferase reporter gene. The luciferase which is formed can be detected by means of chemiluminescence via an appropriate substrate.
The PPARalpha reporter cell line was prepared in two stages. Firstly, the luciferase reporter element was constructed and stably transfected into HEK cells. For this purpose, five binding sites of the yeast transcription factor GAL4 (Accession # AF264724) were cloned in 5′-upstream of a 68 bp-long minimal MMTV promoter (Accession # V01175). The minimal MMTV promoter section contains a CCAAT box and a TATA element in order to enable efficient transcription by RNA polymerase II. The cloning and sequencing of the GAL4-MMTV construct took place in analogy to the description of Sambrook J. et. al. (Molecular cloning, Cold Spring Harbor Laboratory Press, 1989). Then the complete Photinus pyralis gene (Accession # M15077) was cloned in 3′-downstream of the GAL4-MMTV element. After sequencing, the luciferase reporter element consisting of five GAL4 binding sites, MMTV promoter and luciferase gene was recloned into a plasmid which confers zeocin resistance in order to obtain the plasmid pdeltaM-GAL4-Luc-Zeo. This vector was transfected into HEK cells in accordance with the statements in Ausubel, F. M. et al. (Current protocols in molecular biology, Vol. 1-3, John Wiley & Sons, Inc., 1995).
In a second step, the PPARalpha fusion protein (GR-GAL4-humanPPARalpha-LBD was introduced into the stable cell clone described. For this purpose, initially the cDNA coding for the N-terminal 76 amino acids of the glucocorticoid receptor (Accession # P04150) was linked to the cDNA section coding for amino acids 1-147 of the yeast transcription factor GAL4 (Accession # P04386). The cDNA of the ligand-binding domain of the human PPARalpha receptor (amino acids S167-Y468; Accession # S74349) was cloned in at the 3′-end of this GR-GAL4 construct. The fusion construct prepared in this way (GR-GAL4-humanPPARalpha-LBD) was recloned into the plasmid pcDNA3 (Invitrogen) in order to enable constitutive expression therein by the cytomegalovirus promoter. This plasmid was linearized with a restriction endonuclease and stably transfected into the previously described cell clone containing the luciferase reporter element. The finished PPARalpha reporter cell line which contains a luciferase reporter element and constitutively expresses the PPARalpha fusion protein (GR-GAL4-human PPARalpha-LBD) was isolated by selection with zeocin (0.5 mg/ml) and G418 (0.5 mg/ml).
The activity of PPARalpha agonists is determined in a 3-day assay which is described below: […]
For orientation: Reporter assays use an easily measured gene product as a stand-in for the process of interest.

A further test deals with T2, human PPARdelta (Homo sapiens, UniProt Q03181).
T2 construct: amino acids S139-Y441; expressed in transfected cells
T2 sequence (Q03181 139-441): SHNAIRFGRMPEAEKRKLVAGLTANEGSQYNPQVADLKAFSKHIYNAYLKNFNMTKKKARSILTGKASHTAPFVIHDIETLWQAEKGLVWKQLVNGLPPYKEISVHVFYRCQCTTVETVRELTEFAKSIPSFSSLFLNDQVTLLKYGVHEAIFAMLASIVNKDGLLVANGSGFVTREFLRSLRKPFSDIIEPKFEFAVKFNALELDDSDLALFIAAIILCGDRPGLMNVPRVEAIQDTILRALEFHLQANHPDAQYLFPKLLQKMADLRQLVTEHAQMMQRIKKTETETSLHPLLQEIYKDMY
Briefly: cellular PPARdelta assay (luciferase reporter, stably transfected HEK cell line). The format is cell-based. Particulars: GR-GAL4-humanPPARdelta-LBD. On the procedure:
as §1, with “PPARdelta” for “PPARalpha”, “In analogy to the assay described for PPARalpha, the PPARdelta reporter cell line also” for “It”, “(GR-GAL4-humanPPARdelta-LBD)” for “(GR-GAL4-humanPPARalpha-LBD)”, “GR-GAL4-humanPPARdelta-LBD” for “GR-GAL4-humanPPARalpha-LBD”, “little” for “weak”, “stimulate” for “stimulate the”
The production of the stable PPARdelta reporter cell line is based on a stable HEK-cell clone which was stably transfected with a luciferase reporter element. This step was already described above in the section “construction of the PPARalpha reporter cell line”. […]
The activity of PPARdelta agonists is determined in a 3-day assay in exact analogy to the procedure already described for the PPARalpha reporter cell line except that the PPARdelta reporter cell line and a specific PPARdelta agonist was used as a standard to control test efficacy.

Test [1] deals with PPARdelta. To be noted: diabetic animal model; cited from earlier work.
In test [2] the target is T3, PPARdelta (Macaca mulatta, UniProt I0FFS1).
T3 sequence (I0FFS1 1-441): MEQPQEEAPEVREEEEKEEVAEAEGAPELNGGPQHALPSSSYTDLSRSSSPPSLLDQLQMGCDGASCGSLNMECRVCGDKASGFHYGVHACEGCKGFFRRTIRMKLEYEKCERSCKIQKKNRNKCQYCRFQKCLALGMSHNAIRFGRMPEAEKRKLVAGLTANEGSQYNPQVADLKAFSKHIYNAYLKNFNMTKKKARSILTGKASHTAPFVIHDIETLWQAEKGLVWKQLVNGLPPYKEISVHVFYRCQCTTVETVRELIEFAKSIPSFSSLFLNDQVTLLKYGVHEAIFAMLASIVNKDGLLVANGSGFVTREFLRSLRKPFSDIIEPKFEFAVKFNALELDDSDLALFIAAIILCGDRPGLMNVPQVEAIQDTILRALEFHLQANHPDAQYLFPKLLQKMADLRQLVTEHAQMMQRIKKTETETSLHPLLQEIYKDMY
Particulars: obese, insulin resistant rhesus monkeys; cited from earlier work.

The test system of test [3] is PPARdelta/PPARalpha. Particulars: rhesus and cynomolgus monkeys; cited from earlier work.
The test system of test [4] is PPARdelta/PPARalpha. Particulars: two weeks clinical trials, healthy volunteers; cited from earlier work.
The mark [5] stands for this setting: read-out: PPARalpha EC50 values (range given).
The mark [6] stands for this setting: GR-GAL4-humanPPARalpha-LBD, read-out: PPARalpha EC50.

Where two headings read alike, the source gives them in different places.

In the case of `O=c1[nH]c(-c2ccc(S(=O)(=O)N3CCc4cc(-c5ccc(C(F)(F)F)cc5)ccc43)cc2)no1` [Example 1, 3-{4-[5-(4-Trifluoromethyl-phenyl)-2,3-dihydro-indole-1-sulfonyl]-phenyl}-4H-[1,2,4]oxadiazol-5-one], the EC50 at human PPARalpha (setting [5]) was in the range of 1000 to 5000 nM.
Turning to `CC1(C)CN(S(=O)(=O)c2ccc(-c3nc(=O)o[nH]3)cc2)c2ccc(-c3ccc(C(F)(F)F)cc3)cc21` [Example 2, 3-{4-[3,3-Dimethyl-5-(4-trifluoromethyl-phenyl)-2,3-dihydro-indole-1-sulfonyl]-phenyl}-2H-[1,2,4]oxadiazol-5-one], the figures for the EC50 on human PPARalpha (setting [6]), at human PPARalpha (setting [5]) and on human PPARdelta were 3520 nM, 1000 to 5000 nM and 15 nM, respectively.
Turning to `O=c1[nH]c(-c2ccc(S(=O)(=O)N3CCc4cc(-c5ccc(C(F)(F)F)cc5)ccc43)cc2Cl)no1` [Example 3, 3-{2-Chloro-4-[5-(4-trifluoromethyl-phenyl)-2,3-dihydro-indole-1-sulfonyl]-phenyl}-4H-[1,2,4]oxadiazol-5-one], the EC50 on human PPARalpha (setting [6]) is 1110 nM; at human PPARalpha (setting [5]), 1000 to 5000 nM; at human PPARdelta, 3 nM.
As for `CC1(C)CN(S(=O)(=O)c2ccc(-c3nc(=O)o[nH]3)c(Cl)c2)c2ccc(-c3ccc(C(F)(F)F)cc3)cc21` [Example 4, 3-{2-Chloro-4-[3,3-dimethyl-5-(4-trifluoromethyl-phenyl)-2,3-dihydro-indole-1-sulfonyl]-phenyl}-2H-[1,2,4]oxadiazol-5-one], the EC50 on human PPARalpha (setting [5]) was in the range of 1000 to 5000 nM.
Turning to `O=c1nc(-c2ccc(S(=O)(=O)N3CCc4ccc(-c5ccc(C(F)(F)F)cc5)cc4C3)cc2Cl)[nH]o1` [Example 5, 3-{2-Chloro-4-[7-(4-trifluoromethyl-phenyl)-3,4-dihydro-1H-isoquinoline-2-sulfonyl]-phenyl}-2H-[1,2,4]oxadiazol-5-one], the EC50 was 1640 nM at human PPARalpha (setting [6]), 1000 to 5000 nM at human PPARalpha (setting [5]) and 35 nM at human PPARdelta.
For the compound `CCCc1c(OCCCOc2ccc(OCC(=O)O)cc2)ccc(C(C)=O)c1O` [Example L-165041], in the test with PPARdelta [1], the plasma cholesterol result was “raises”.
Consider `Cc1cc(SCc2sc(-c3ccc(C(F)(F)F)cc3)nc2C)ccc1OCC(=O)O` [GW501516], for which, on PPARdelta [2], the HDL-cholesterol entry was “raises”, the insulin levels result is listed as “decreases”, the “plasma LDL-cholesterol” value is given as “decreases” and the triglycerides entry is on record as “decreases”.
Consider `CCCc1c(OCCCSc2nnc(SCC(=O)O)s2)ccc(C(C)=O)c1O` [YM-16638], for which the plasma lipids result was “significantly lowers” in the test on PPARdelta/PPARalpha [3] and “acts in a similar manner” in the test with PPARdelta/PPARalpha [4].

One may read the EC50 as the midpoint of the concentration-response curve.
